Where “and” joins values, the source holds several entries; their conditions need not be identical. Equal entries are not always repeated. Toxic doses and inconclusive results are not listed.
System: P388 leukemia ip, CD2F1 mice, survival T/C
Assay: NCI In Vivo Anticancer Drug Screen. Data for tumor model P388 Leukemia (intraperitoneal) in CD2F1 (CDF1) mice
Details: endpoint: median survival time, higher = longer survival
Procedure, shortened: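 Mice carrying the transplanted tumor received test compound or vehicle. Survival was recorded in each group, and the value is the treated-group measurement divided by that of the vehicle-treated control group.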

[1] = dose: 6.25 mg/kg/injection, schedule: Q01DX009 (ip), vehicle: water
[2] = dose: 50.0 mg/kg/injection, schedule: Q01DX009 (ip), vehicle: saline
[3] = dose: 100.0 mg/kg/injection, schedule: Q01DX009 (ip), vehicle: saline
[4] = dose: 200.0 mg/kg/injection, schedule: Q01DX009 (ip), vehicle: saline
[5] = dose: 50.0 mg/kg/injection, schedule: Q01DX005 (ip), vehicle: saline with Tween-80
[6] = dose: 100.0 mg/kg/injection, schedule: Q01DX005 (ip), vehicle: saline with Tween-80
[7] = dose: 200.0 mg/kg/injection, schedule: Q01DX005 (ip), vehicle: saline with Tween-80
[8] = dose: 30.0 mg/kg/injection, schedule: Q01DX005 (ip), vehicle: saline with Tween-80
[9] = dose: 60.0 mg/kg/injection, schedule: Q01DX005 (ip), vehicle: saline with Tween-80
[10] = dose: 50.0 mg/kg/injection, schedule: Q01DX009 (ip), vehicle: saline with Tween-80
[11] = dose: 100.0 mg/kg/injection, schedule: Q01DX009 (ip), vehicle: saline with Tween-80
[12] = dose: 200.0 mg/kg/injection, schedule: Q01DX009 (ip), vehicle: saline with Tween-80
[13] = dose: 100.0 mg/kg/injection, schedule: Q04DX003 (ip), vehicle: saline with Tween-80
[14] = dose: 400.0 mg/kg/injection, schedule: Q01DX009 (ip), vehicle: saline with Tween-80
[15] = dose: 50.0 mg/kg/injection, schedule: Q01DX005 (ip), vehicle: Klucel (hydroxypropylcellulose) (HPC)
[16] = dose: 100.0 mg/kg/injection, schedule: Q01DX005 (ip), vehicle: Klucel (hydroxypropylcellulose) (HPC)
[17] = dose: 200.0 mg/kg/injection, schedule: Q01DX005 (ip), vehicle: Klucel (hydroxypropylcellulose) (HPC)
[18] = dose: 120.0 mg/kg/injection, schedule: Q01DX005 (ip), vehicle: saline with Tween-80
[19] = dose: 240.0 mg/kg/injection, schedule: Q01DX005 (ip), vehicle: saline with Tween-80

With `CCCCCCCCCCCCCCCCCC(=O)OCC(=O)OCC(=O)[C@]1(O)Cc2c(O)c3c(c(O)c2[C@@H](OC2CC(N)C(O)C(C)O2)C1)C(=O)c1c(OC)cccc1C3=O` (some centres undefined) the T/C (dose: 0.39 mg/kg/injection, schedule: Q01DX009 (ip), vehicle: water) was 150 % of control, the T/C (dose: 0.78 mg/kg/injection, schedule: Q01DX009 (ip), vehicle: water) was 157 % of control and the T/C (dose: 1.56 mg/kg/injection, schedule: Q01DX009 (ip), vehicle: water) was 180 % of control and 194 % of control. For the same compound, the T/C (dose: 3.13 mg/kg/injection, schedule: Q01DX009 (ip), vehicle: water) was 200 % of control and 203 % of control and the T/C [1] was 93 % of control and 98 % of control.
`Cc1cc(OCC(=O)N/N=C/c2ccc(N(CCCl)CCCl)cc2)c2ccc(Cl)cc2n1` was tested, and the T/C [2] was 95 % of control and 97 % of control, the T/C [3] was 97 % of control and the T/C [4] was 101 % of control and 87 % of control.
`ICC1CCCCC1CI` (centres undefined) was tested, and the T/C [5] was 106 % of control, the T/C [6] was 99 % of control and the T/C [7] was 104 % of control.
In the case of `Cc1c2sc3ccccc3[nH]c2nc2[nH]c3ccccc3sc12`, the T/C [5] was 108 % of control, the T/C [6] was 116 % of control and the T/C [7] was 108 % of control.
With `CC(=O)OCCn1c([N+](=O)[O-])cnc1/C=[N+](/C)[O-]` the T/C [2] was 101 % of control, the T/C [3] was 102 % of control and the T/C [4] was 103 % of control.
`CC1(c2ccccc2)CCC(O)CC1CC(=O)O` (centres undefined) was tested, and the T/C [5] was 98 % of control, the T/C [6] was 100 % of control and the T/C [7] was 101 % of control.
For `ClCCN1c2ccccc2Oc2cc3ccccc3cc21`, the T/C [5] was 101 % of control, the T/C [6] was 110 % of control and the T/C [7] was 100 % of control.
In the case of `CC(=O)OCC1OC([S][Sb]([CH3])[CH3])C(OC(C)=O)C(OC(C)=O)C1OC(C)=O` (centres undefined), the T/C (dose: 15.0 mg/kg/injection, schedule: Q01DX005 (ip), vehicle: saline with Tween-80) was 112 % of control, the T/C [8] was 101 % of control and the T/C [9] was 115 % of control.
For `CNc1cc[nH]c(=O)c1NC(C)=O`, the T/C (dose: 60.0 mg/kg/injection, schedule: Q01DX005 (ip), vehicle: saline) was 100 % of control, the T/C (dose: 120.0 mg/kg/injection, schedule: Q01DX005 (ip), vehicle: saline) was 101 % of control and the T/C (dose: 240.0 mg/kg/injection, schedule: Q01DX005 (ip), vehicle: saline) was 106 % of control.
In the case of `BrCC(Br)=C(Br)Br`, the T/C (dose: 3.12 mg/kg/injection, schedule: Q01DX009 (ip), vehicle: saline with Tween-80) was 104 % of control, the T/C (dose: 6.25 mg/kg/injection, schedule: Q01DX009 (ip), vehicle: saline with Tween-80) was 106 % of control and the T/C (dose: 12.5 mg/kg/injection, schedule: Q01DX009 (ip), vehicle: saline with Tween-80) was 98 % of control.
In the case of `C/C(=N\Nc1ccc([N+](=O)[O-])cc1[N+](=O)[O-])C1CC1`, the T/C (dose: 25.0 mg/kg/injection, schedule: Q01DX009 (ip), vehicle: saline with Tween-80) was 117 % of control, the T/C [10] was 106 % of control and the T/C [11] was 108 % of control. For the same compound, the T/C [12] was 109 % of control.
With `C[C@H]1C[C@@H]2[C@H]([C@@H](O)C[C@@]3(C)[C@H]2CC[C@]3(O)C(=O)CF)[C@@]2(C)C=CC(=O)C=C12` the T/C (dose: 10.0 mg/kg/injection, schedule: Q01DX009 (ip), vehicle: saline with Tween-80) was 104 % of control, the T/C [13] was 100 % of control and the T/C [12] was 95 % of control. The T/C (dose: 200.0 mg/kg/injection, schedule: Q04DX003 (ip), vehicle: saline with Tween-80) was 100 % of control, the T/C [14] was 86 % of control and the T/C (dose: 400.0 mg/kg/injection, schedule: Q04DX003 (ip), vehicle: saline with Tween-80) was 100 % of control.
In the case of `CC(C)=NN(C)/C=N/S(=O)(=O)c1ccccc1`, the T/C [15] was 100 % of control, the T/C [16] was 97 % of control and the T/C [17] was 98 % of control.
With `COC1=CC(=O)N/C1=C(\OC)c1ccccc1` the T/C [9] was 90 % of control, the T/C [18] was 93 % of control and the T/C [19] was 99 % of control.
In the case of `CCCCN(CCCC)c1nn[nH]n1`, the T/C [15] was 89 % of control, the T/C [16] was 94 % of control and the T/C [17] was 95 % of control.
For `O=C1NC(=O)C2(CC3CCCC(C2)N3CCO)N1` (centres undefined), the T/C (dose: 50.0 mg/kg/injection, schedule: Q01DX009 (ip), vehicle: water) was 101 % of control, the T/C (dose: 100.0 mg/kg/injection, schedule: Q01DX009 (ip), vehicle: water) was 101 % of control and the T/C (dose: 200.0 mg/kg/injection, schedule: Q01DX009 (ip), vehicle: water) was 100 % of control.
In the case of `CC1CC(=O)C2(C)C1CC1CCC2(C)OC1(C)C` (centres undefined), the T/C [11] was 100 % of control, the T/C [12] was 102 % of control and the T/C [14] was 100 % of control.
In the case of `CCN(CC)[P+](c1ccccc1O)(N(CC)CC)N(CC)CC`, the T/C (dose: 1.56 mg/kg/injection, schedule: Q01DX009 (ip), vehicle: saline) was 100 % of control and the T/C (dose: 3.12 mg/kg/injection, schedule: Q01DX009 (ip), vehicle: saline) was 101 % of control.
In the case of `O=C1C2CCN(CC2)C1(CO)CO`, the T/C [2] was 102 % of control, the T/C [3] was 105 % of control and the T/C [4] was 105 % of control.
For `C/C(=N/N=C(N)N)c1ccc(NC(=O)Nc2ccc(/C(C)=N/N=C(N)N)cc2)cc1`, the T/C [1] was 151 % of control, the T/C [13] was 150 % of control and the T/C (dose: 150.0 mg/kg/injection, schedule: Q04DX003 (ip), vehicle: saline with Tween-80) was 118 % of control.
For `COc1cc(C2CC(C)(O)Oc3cc4c(cc32)OCO4)cc(OC)c1OC` (centres undefined), the T/C [8] was 104 % of control and the T/C [9] was 105 % of control and 108 % of control.
With `Cc1cc(C)cc(OC(=O)/C=C/C(=O)Oc2cc(C)cc(C)c2)c1` the T/C [11] was 90 % of control, the T/C [12] was 90 % of control and the T/C [14] was 90 % of control.
With `CCOC(=O)N(C)N(C)C(=O)OCC` the T/C (dose: 50.0 mg/kg/injection, schedule: Q01DX005 (ip), vehicle: saline) was 100 % of control, the T/C (dose: 100.0 mg/kg/injection, schedule: Q01DX005 (ip), vehicle: saline) was 100 % of control and the T/C (dose: 200.0 mg/kg/injection, schedule: Q01DX005 (ip), vehicle: saline) was 100 % of control.
In the case of `C/C(=N/NC(=S)NNC(=S)N(C)c1ccccc1)c1nccc2ccccc12`, the T/C [5] was 102 % of control, the T/C [6] was 101 % of control and the T/C [7] was 104 % of control.
`CC(C)CC1([N+](=O)[O-])CN(C)CC2CCCCN2C1` (centres undefined) was tested, and the T/C (dose: 25.0 mg/kg/injection, schedule: Q04DX002 (ip), vehicle: water) was 102 % of control, the T/C (dose: 50.0 mg/kg/injection, schedule: Q04DX002 (ip), vehicle: water) was 107 % of control and the T/C (dose: 100.0 mg/kg/injection, schedule: Q04DX002 (ip), vehicle: saline) was 102 % of control. The T/C (dose: 100.0 mg/kg/injection, schedule: Q04DX002 (ip), vehicle: water) was 99 % of control.
For `COC(=O)C1=C(C)OC2OCCC12` (centres undefined), the T/C [9] was 110 % of control, the T/C [18] was 101 % of control and the T/C [19] was 102 % of control.
For `CCOC(=O)c1ccc(NC(=S)NC(=O)c2ccco2)o1`, the T/C [10] was 92 % of control, the T/C [11] was 100 % of control and the T/C [12] was 92 % of control.
In the case of `COC1=CC(=O)C(C#CCOCc2ccccc2)=CC1=O`, the T/C (dose: 7.5 mg/kg/injection, schedule: Q01DX005 (ip), vehicle: Klucel (hydroxypropylcellulose) (HPC)) was 100 % of control, the T/C (dose: 15.0 mg/kg/injection, schedule: Q01DX005 (ip), vehicle: Klucel (hydroxypropylcellulose) (HPC)) was 102 % of control and the T/C (dose: 30.0 mg/kg/injection, schedule: Q01DX005 (ip), vehicle: Klucel (hydroxypropylcellulose) (HPC)) was 105 % of control.
`CC(C)C(NC(=O)C(=O)c1c[nH]c2ccc(Cl)cc12)C(=O)O` (centres undefined) was tested, and the T/C [9] was 100 % of control, the T/C [18] was 91 % of control and the T/C [19] was 90 % of control.
For `CC1(C)OC2(C)NS(=O)(=O)c3ccc(Cl)cc3N2C1=O` (centres undefined), the T/C [10] was 106 % of control, the T/C [11] was 100 % of control and the T/C [12] was 98 % of control.
With `NC(N)=NO` the T/C (dose: 8.2 mg/kg/injection, schedule: Q01DX009 (ip), vehicle: water) was 110 % of control, the T/C (dose: 12.0 mg/kg/injection, schedule: Q01DX009 (ip), vehicle: water) was 105 % of control and the T/C (dose: 75.0 mg/kg/injection, schedule: Q01DX009 (ip), vehicle: saline) was 155 % of control. For the same compound, the T/C (dose: 150.0 mg/kg/injection, schedule: Q01DX009 (ip), vehicle: saline) was 170 % of control.
`CCCCOP(O)(=S)OCCCC.[Er]` was tested, and the T/C (dose: 100.0 mg/kg/injection, schedule: Q04DX002 (ip), vehicle: saline with Tween-80) was 96 % of control, the T/C (dose: 200.0 mg/kg/injection, schedule: Q04DX002 (ip), vehicle: saline with Tween-80) was 101 % of control and the T/C (dose: 400.0 mg/kg/injection, schedule: Q04DX002 (ip), vehicle: saline with Tween-80) was 95 % of control.
`Nc1nc(N)c2cc(Sc3cccc(C(F)(F)F)c3)ccc2n1` was tested, and the T/C [11] was 172 % of control and the T/C [12] was 94 % of control.

— PubChem BioAssay AID330 (DTP/NCI, 2004)
